System: PC12 cells
Experiment: Apoptosis suppressive activity by removal of NGF in NGF-differentiated PC12 cells (MTT)
Type: cell-based
Details: 3 μmol/L test compound; 24 hours without NGF; cells with NGF not removed = 100%, NGF removed = 0%
Experimental: PC12 cells prepared in 6.0×10^4/mL by Roswell Park Memorial Institute's Medium (RPMI) 1640 medium containing 10% of horse serum, 5% of bovine fetal serum and penicillin/streptomycin were disposed in a 24-well multidish (NulgeNunc International; No. 143982) coated with polyethyleneimine in an amount of 0.5 mL for each well. After the cells were adhered to the dish, the medium was removed, an RPMI 1640 medium containing […] of 1% horse serum, penicillin/streptomycin and 50 ng/mL of mouse nerve growth factor (NGF) was added and the cells were incubated in a carbon dioxide gas incubator at 37° C. for 9 to 12 days, causing the cells to differentiate into a nerve cell form. A dilution series of DMSO solution of the test compound was prepared, and diluted with a medium containing 1% horse serum and penicillin/streptomycin and containing no NGF (final DMSO concentration: 0.1%). The medium was removed, washing was conducted twice using a medium containing 0.5 mL of the test compound, 1% horse serum, and penicillin/streptomycin, and containing no NGF, 0.5 mL of the above-medium was added once again to each well and then incubation was conducted in a carbon dioxide gas incubator at 37° C. for 24 hours. The medium was removed, 0.2 mL of a medium containing 1% horse serum, penicillin/streptomycin, NGF and 1 mg/mL 3-(4,5-dimethyl-2-thiazolyl)-2,5-diphenyl-2H-tetrazolium bromide (MTT) containing no test compound, was added to each well and incubation was conducted in a carbon dioxide gas incubator at 37° C. for 4 hours. DMSO (0.6 mL) was added to each well and 0.2 mL thereof was transferred to a 96-well multititer plate (Nulge Nunc International; No. 167008) and absorbances at 590 nm and 630 nm were measured using a microplate reader EL 3401 (Bio-Tek). The absorbance differential was calculated by subtracting the […] for each well. The apoptosis suppressive activity (%) of test compound were calculated by comparing the absorbance differential obtained from cells treated with test compound of known concentration with the value in the cells from which no NGF was removed and the value in the cells from which NGF was removed. Here, the value in the cells from which no NGF was removed was set at 100% while the value in the cells from which NGF was removed was set at 0%.

Row | Molecule | Apoptosis Suppressive Activity in 3 μmol/L of Test Compound (%)
1 | O=C(Nc1ccc2[nH]nc(/C=C/c3cccnc3)c2c1)c1ccccc1 [Compound 4, (E)-5-Benzamido-3-[2-(3-pyridyl)vinyl]-1H-indazole] | 64%
2 | COC(=O)/C=C/c1ccc2[nH]nc(/C=C/c3cccnc3)c2c1 [Compound 14, (E)-5-(2-Methoxycarbonylvinyl)-(E)-3-[2-(3-pyridyl)vinyl]-1H-indazole] | 62%
3 | C(=C\c1n[nH]c2ccccc12)/c1cccnc1 [Compound 2, (E)-3-[2-(3-Pyridyl)vinyl]-1H-indazole] | 44%
4 | CN(C)CCOc1ccc(/C=C/c2n[nH]c3ccccc23)cc1 [Compound 1] | 63%

Target: T1, mouse JNK 3 (Mus musculus, UniProt Q61831)
T1 construct: made in house; host or cells: COS-7 cells (crude extract)
T1 sequence (Q61831 whole entry): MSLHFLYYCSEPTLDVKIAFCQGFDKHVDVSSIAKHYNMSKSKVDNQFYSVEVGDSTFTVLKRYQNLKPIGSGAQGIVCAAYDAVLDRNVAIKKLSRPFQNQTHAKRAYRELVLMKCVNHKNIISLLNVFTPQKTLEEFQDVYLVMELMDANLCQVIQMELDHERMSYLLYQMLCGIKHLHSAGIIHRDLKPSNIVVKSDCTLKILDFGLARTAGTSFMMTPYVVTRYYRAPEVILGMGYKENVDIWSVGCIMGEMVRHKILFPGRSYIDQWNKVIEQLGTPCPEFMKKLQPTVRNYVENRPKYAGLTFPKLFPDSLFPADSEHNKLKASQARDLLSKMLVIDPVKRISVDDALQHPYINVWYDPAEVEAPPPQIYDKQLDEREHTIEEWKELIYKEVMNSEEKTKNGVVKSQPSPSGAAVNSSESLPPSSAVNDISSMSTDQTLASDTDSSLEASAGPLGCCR
Experiment: JNK 3 inhibitory activity (33P incorporation into GST-JSAP1 fused protein)
Type: biochemical
Details: crude extract of COS-7 cells expressing mouse JNK 3; 3 μmol/L ATP; GST-JSAP1 substrate; 30° C., 15 minutes; read-out: JNK3 Inhibitory Activity (IC50/μM)
Experimental: A crude extract of COS-7 cells in which mouse JNK 3 was expressed was used as the transcription enzyme solution. Glutathione-S-transferase (GST)-JSAP 1 (JNK/SAPK associated protein 1) fused protein was expressed in E. coli and its crude extract was subjected to an affinity purification using a column of Glutathione Sepharose 4B. An enzyme solution (3 μL), 50 μL of a reaction solution containing a test compound [in the reaction solution, (physiological saline)/(DMSO solution containing the test compound) (ratio by weight) was adjusted to 99/1], 50 μL of a substrate solution (final concentration: 3 μmol/L ATP), 0.75 μCi/ml[γ-^33P]-ATP and 66 μg/mL (1.5 μmol/L) of GST-JSAP1 fused protein reaction solution were incubated at 30° C. for 15 minutes. The reaction was stopped by addition of ethanol whereupon the GST-JSAP1 fused protein was precipitated. The precipitated protein was filtered using a Filter Mate Harvester (Packard Instruments) and adsorbed to a Unifilter Plate GF/B. Incorporation of radiation activity from [γ-^33P1-ATP to the GST-JSAP1 fused protein was measured using TopCount-HTS (Packard Instruments) to calculate enzyme inhibition activity. The enzyme inhibitory activity was calculated by a Probit (L) method using a statistic analysis software SAS (Release 6.12; SAS Institute, Inc.) as the 50% enzyme activity inhibiting concentration (IC50).

Row | Molecule | IC50
5 | O=C(Nc1ccc2[nH]nc(/C=C/c3cccnc3)c2c1)c1cnccn1 [Compound 9, (E)-5-(Pyrazinecarboxamido)-3-[2-(3-pyridyl)vinyl]-1H-indazole] | 0.55 µM
6 | O=C(Cc1c[nH]c2ccccc12)Nc1ccc2[nH]nc(/C=C/c3cccnc3)c2c1 [Compound 6, (E)-5-(3-Indolyl)acetamide-3-[2-(3-pyridyl)vinyl]-1H-indazole] | < 0.5 µM
7 | O=C(O)c1ccc(/C=C/c2ccc3[nH]nc(/C=C/c4cccnc4)c3c2)cc1 [Compound 17, (E)-5-[2-(4-Carboxyphenyl)vinyl]-(E)-3-[2-(3-pyridyl)vinyl]-1H-indazole] | < 0.5 µM
8 | O=C(O)c1ccc2[nH]nc(/C=C/c3cccnc3)c2c1 [Compound 19, (E)-3-[2-(3-Pyridyl)vinyl]-1H-indazole-5-carboxylic acid] | < 0.5 µM
9 | COC(=O)/C=C/c1ccc2[nH]nc(/C=C/c3cccnc3)c2c1 [Compound 14, (E)-5-(2-Methoxycarbonylvinyl)-(E)-3-[2-(3-pyridyl)vinyl]-1H-indazole] | < 0.5 µM
10 | (E)-3-[2-(Benzamidopyridin-3-yl)vinyl]-(E)-5-(2-carboxyvinyl)-1H-indazole [Compound 23] | < 0.5 µM
11 | O=C(Nc1ccccc1/C=C/c1n[nH]c2ccc(C#CCO)cc12)c1ccccc1 [Compound 26, (E)-3-[2-(2-Benezoylaminophenyl)vinyl]-5-(3-hydroxy-1-propyn-1-yl)-1H-indazole] | < 0.5 µM
12 | O=C(Nc1ccc2[nH]nc(/C=C/c3cccnc3)c2c1)c1ccncc1 [Compound 11, (E)-5-(4-Pyridinecarboxamido)-3-[2-(3-pyridyl)vinyl]-1H-indazole] | < 0.5 µM
13 | OCC#Cc1ccc2[nH]nc(/C=C/c3cccnc3)c2c1 [Compound 18, (E)-5-(3-hydroxy-1-propyn-1-yl)-3-[2-(3-pyridyl)vinyl]-1H-indazole] | < 0.5 µM
14 | O=C(O)c1ccc(C(=O)Nc2ccc3[nH]nc(/C=C/c4cccnc4)c3c2)cc1 [Compound 12, (E)-5-(4-Carboxybenzamido)-3-[2-(3-pyridyl)vinyl]-1H-indazole] | < 0.5 µM
15 | O=C(CCS(=O)(=O)c1ccccc1)Nc1ccc2[nH]nc(/C=C/c3cccnc3)c2c1 [Compound 7, (E)-5-[3-(Phenylsulfonyl)propaneamido]-3-[2-(3-pyridyl)vinyl]-1H-indazole] | 1.2 µM
16 | C(=C\c1n[nH]c2ccccc12)/c1cccnc1 [Compound 2, (E)-3-[2-(3-Pyridyl)vinyl]-1H-indazole] | < 0.5 µM
17 | O=C(O)c1ccc(C(=O)Nc2ccc3[nH]nc(/C=C/c4cnccc4NC(=O)c4ccccc4)c3c2)cc1 [Compound 24, (E)-3-[2-(4-Benzamidopyridin-3-yl)vinyl]-5-(4-carboxybenzamido)-1H-indazole] | < 0.5 µM
18 | O=C(O)/C=C/c1ccc2[nH]nc(/C=C/c3cccnc3)c2c1 [Compound 15, (E)-5-(2-Carbonxyvinyl)-(E)-3-[2-(3-pyridyl)vinyl]-1H-indazole] | < 0.5 µM
19 | O=C(Nc1ccccc1/C=C/c1n[nH]c2ccc(/C=C/CO)cc12)c1ccccc1 [Compound 25, (E)-3-[2-(2-Benzoylaminophenyl)vinyl]-(E)-5-(3-hydroxy-1-propen-1-yl)-1H-indazole] | < 0.5 µM
20 | CN(C)CCOc1ccc(/C=C/c2n[nH]c3ccccc23)cc1 [Compound 1] | < 0.5 µM
21 | OCC=Cc1ccc2[nH]nc(/C=C/c3cccnc3)c2c1 [Compound 21, (E)-5-(3-Hydroxy-1-propen-1-yl)-3-[2-(3-pyridyl)vinyl]-1H-indazole] | < 0.5 µM

From patent publication US20060058366A1, “Jnk inhibitor” (KYOWA HAKKO KOGYO CO., LTD., priority 2002, published 2006)
